Experiments:
Format in all cases: cell-based
MCF7 cells = test: MCF7 Cell Growth Inhibition Assay; settings: Homo sapiens, 24 h, 10% serum, DAPI cell count, 4-pt dilution from 10 μM
Protocol: MCF7 cells were seeded in 96-well plates at 10% confluence 24 h prior to treatment. Compound was added to cells in full growth media containing 10% serum, using a 2-fold, 4-pt dilution scheme beginning from 10 μM (10, 5, 2.5, 1.25 μM). Plates were incubated for 24 h. After treatment, cells were washed, fixed with 4% PFA and stained with DAPI. Plates were imaged using a Cytation 3 plate reader and nuclear DAPI staining was used to quantify cell number. % Growth relative to vehicle-treated (DMSO) control wells was plotted using Excel (See FIGS. 1-8). IC50s were calculated by fitting the data points to the following standard equation:
Growth=1−[Cmpd]^n/(IC50^n+[Cmpd]^n)
where [Cmpd] is the molar concentration of compound, the IC50 is the concentration where half-maximal effect is seen, and n is the Hill coefficient.

MRC5 4d Toxicity Assay = settings: human, confluent MRC5 cells, DAPI cell count, read-out: MRC5 4 d Tox: CC50
Protocol: MRC5 cells were seeded in 96-well plates 1-2 days prior to treatment to ensure 100% confluence. On the day of treatment, cells were washed once and growth media was replaced. Compound (in DMSO) was added to cells using the following dilution scheme: 25, 12.5, 4.16, 1.4, 0.46, 0.15, 0.05 μM. Test concentrations were assayed in duplicate and included 0 μM (DMSO) control wells. Plates were incubated for 4 days. After treatment, cells were washed, fixed with 4% PFA and stained with DAPI. Plates were imaged using a Cytation 3 plate reader and nuclear DAPI staining was used to quantify cell survival. Dose-response plots were generated using CDD Vault to calculate CC50s.

cMYC = cMYC Degradation Assay (MDA-MB-231 cells, western blot); settings: 72 hours
Protocol: MDA-MB-231 cells were seeded in 6-well format in complete growth media containing 10% serum and incubated for 48 h to ensure 100% confluence. Compound was added to cells at 5 μM and 10 μM final concentrations for a treatment period of 72 hours. Cells were harvested in ice-cold IP buffer and lysates were cleared by centrifugation. Total protein concentration was determined for each sample by Bradford assay. Proteins were separated by 10% SDS-PAGE and blotted onto PVDF membranes. Membranes were blocked with CosmoBio PDVF blocking reagent for 1 hour, followed by overnight incubation with cMYC primary antibody (Abcam) at 4 C. After several washes, the membanes were probed with secondary antibody for 1 hour at room temperature. Fluorescent signal was acquired using an Odyssey CLx (LI-COR) and quantified using ImageJ software.

[1] = tested on: human cytomegalovirus (HCMV); test: Antiviral activity against human cytomegalovirus (HCMV) in MRC5 cells; settings: for IC50 / IC90: Human betaherpesvirus 5, 168 h, MRC5 cells, MOI 0.01 IU per cell, 7 days post infection, mCherry positive cells; for Selectivity Index: SI50: MRC5 TOX 7 d CC50 relative to HCMV IC50
Protocol: To assess their antiviral activity, some compounds were tested against human cytomegalovirus (HCMV) in vitro. Human MRC5 cells were grown to confluency (˜1.0×10^4 cells/well) in 96-well plate format in Dulbecco's Modified Eagle Medium (DMEM) supplemented with 10% fetal bovine serum (FBS) 2 mM L-glutamine, 0.1 mM non-essential amino acids, 10 mM HEPES, and 100 U/ml each of penicillin and streptomycin and infected with an HCMV variant expressing mCherry tagged pUL99 (the product of late viral UL99 gene) at a multiplicity of 0.01 infectious unit (IU) per cell. Assays were performed in triplicate. One hour later, medium of the cells was replaced with fresh medium containing the indicated compounds at 25, 12.5, 6.25, 3.13, 1.56, 0.78, 0.39 μM or the carrier in which the compounds are dissolved (DMSO). Final concentration of DMSO was 0.5% in each treatment. Virus yield in the culture was determined at 7 days post infection by quantification of fluorescent (mCherry positive) cells in each well by fluorescent microscopy. Results were plotted using CDD Vault (CDD Vault was developed by Collaborative Drug Discovery, Inc., 1633 Bayshore Hwy, Suite 342, Burlingame, CA 94010) in order to calculate IC50s and IC90s.

MRC5 TOX 7 d = settings: human

| Compound | GI50 (MCF7 cells) [nM] | CC50 at 4 days (MRC5 4d Toxicity Assay) [nM] | MDA-MB-231 cMYC: Fold Decrease in Low MW Band at 5 μM (cMYC) [fold] | MDA-MB-231 cMYC: Fold Increase in High MW Band at 5 μM (cMYC) [fold] | MDA-MB-231 cMYC: Fold Decrease in Low MW Band at 10 μM (cMYC) [fold] | MDA-MB-231 cMYC: Fold Increase in High MW Band at 10 μM (cMYC) [fold] | MDA-MB-231 cMYC qualitative degredation (cMYC) | IC50 [1] [nM] | IC90 [1] [nM] | Selectivity Index: SI50 [1] | CC50 at 7 d (MRC5 TOX 7 d) [nM] |
| --- | --- | --- | --- | --- | --- | --- | --- | --- | --- | --- | --- |
| CNC(=O)N(C)c1ccc2c(c1)CN(c1ncc(Cc3ccc(-n4cccn4)cc3)s1)CC2 [Example 023] | 1200 | > 25000 | 0.04 | 0.22 | 0.0 | 0.2 | total | 874 | 2900 | >15.5 | > 13600 |
| NC(=O)Nc1ccc2c(c1)CN(c1ncc(Cc3ccc(-n4cccn4)cc3)s1)CC2 [Example 019] | 11000 | > 25000 | 0.62 | 1.18 | 0.9 | 3.2 | partial | 791 | > 6610 | >8.6 | > 6770 |
